Laboratory results from PMC12150326 (The Journal of Organic Chemistry, 2025).

How the values were obtained:
Assay type in all cases: cell-based, human
786-0 = test system: 786-0
How it was run: (§1)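 Screening via NCI-60, five log concentrations from 0.01 to 100 μM; TGI compared by COMPARE with reference tubulin agents.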

A498 = test system: A498
How it was run: as §1

ACHN = test system: ACHN
How it was run: (§2)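 NCI-60 panel, 5-dose format (100 μM → 0.01 μM, tenfold steps). TGI values used for COMPARE vs. known tubulin inhibitors.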

BT-549 = test system: BT-549
How it was run: as §1

CAKI-1 = test system: CAKI-1
How it was run: as §1

HCT-116 = test system: HCT-116
How it was run: as §1

HL-60(TB) = test system: HL-60(TB)
How it was run: as §1

HOP-92 = test system: HOP-92
How it was run: as §1

HT29 = test system: HT29
How it was run: as §1

K-562 = test system: K-562
How it was run: as §1

LOX IMVI = test system: LOX IMVI
How it was run: as §2

MALME-3M = test system: MALME-3M
How it was run: as §1

MCF7 = test system: MCF7
How it was run: as §1

MOLT-4 = test system: MOLT-4
How it was run: as §1

NCI 60 cell lines = test system: NCI 60 cell lines
How it was run: as §1

NCI-H23 = test system: NCI-H23
How it was run: as §1

NCI-H460 = test system: NCI-H460
How it was run: as §1

NCI/ADR-RES = test system: NCI/ADR-RES
How it was run: as §1

OVCAR-8 = test system: OVCAR-8
How it was run: as §1

PC-3 = test system: PC-3
How it was run: as §2

SK-MEL-28 = test system: SK-MEL-28
How it was run: as §1

SK-MEL-5 = test system: SK-MEL-5
How it was run: as §1

SN12C = test system: SN12C
How it was run: as §1

SNB-19 = test system: SNB-19
How it was run: as §2

SR = test system: SR
How it was run: as §1

T-47D = test system: T-47D
How it was run: as §1

TK-10 = test system: TK-10
How it was run: as §2

COc1cc(C)c(-c2ccc(OC)c(=O)cc2C)c(OC)c1OC (single isomer, unassigned) [(aS)-6]
Log10GI50 (786-0): > -4.00 Molar
Log10LC50 (786-0): > -4.00 Molar
Log10TGI (786-0): > -4.00 Molar
Log10GI50 (A498): > -4.00 Molar
Log10LC50 (A498): > -4.00 Molar
Log10TGI (A498): > -4.00 Molar
Log10GI50 (ACHN): > -4.00 Molar
Log10LC50 (ACHN): > -4.00 Molar
Log10TGI (ACHN): > -4.00 Molar
Log10GI50 (BT-549): > -4.00 Molar
Log10LC50 (BT-549): > -4.00 Molar
Log10TGI (BT-549): > -4.00 Molar
Log10GI50 (CAKI-1): > -4.00 Molar
Log10LC50 (CAKI-1): > -4.00 Molar
Log10TGI (CAKI-1): > -4.00 Molar
Log10GI50 (HCT-116): > -4.00 Molar
Log10LC50 (HCT-116): > -4.00 Molar
Log10TGI (HCT-116): > -4.00 Molar
Log10GI50 (HL-60(TB)): > -4.00 Molar
Log10LC50 (HL-60(TB)): > -4.00 Molar
Log10TGI (HL-60(TB)): > -4.00 Molar
Log10GI50 (HOP-92): -4.65 Molar
Log10LC50 (HOP-92): > -4.00 Molar
Log10TGI (HOP-92): > -4.00 Molar
Log10GI50 (HT29): > -4.00 Molar
Log10LC50 (HT29): > -4.00 Molar
Log10TGI (HT29): > -4.00 Molar
Log10GI50 (K-562): -4.38 Molar
Log10LC50 (K-562): > -4.00 Molar
Log10TGI (K-562): > -4.00 Molar
Log10GI50 (LOX IMVI): > -4.00 Molar
Log10LC50 (LOX IMVI): > -4.00 Molar
Log10TGI (LOX IMVI): > -4.00 Molar
Log10GI50 (MALME-3M): > -4.00 Molar
Log10LC50 (MALME-3M): > -4.00 Molar
Log10TGI (MALME-3M): > -4.00 Molar
Log10GI50 (MCF7): > -4.00 Molar
Log10LC50 (MCF7): > -4.00 Molar
Log10TGI (MCF7): > -4.00 Molar
Log10GI50 (MOLT-4): > -4.00 Molar
Log10LC50 (MOLT-4): > -4.00 Molar
Log10TGI (MOLT-4): > -4.00 Molar
cytotoxicity at the highest concentration tested (NCI 60 cell lines; 100 μM): not cytotoxic
Log10 Range at TGI (NCI 60 cell lines; NCI-60 cell line selectivity, listed as (aS)-DM-MTC (6)): 0
Mean TGI (NCI 60 cell lines; NCI-60 mean total growth inhibition, listed as (aS)-DM-MTC (6)): > 100 µM
GI50 (NCI 60 cell lines; NCI-60 mean, listed as (aS)-DM-MTC (6)): > 100 µM
Delta Log10GI50 (NCI 60 cell lines; mean graph): 0.63
Delta Log10LC50 (NCI 60 cell lines; mean graph): 0
Delta Log10TGI (NCI 60 cell lines; mean graph): 0
Range Log10GI50 (NCI 60 cell lines; mean graph): 0.65
Range Log10LC50 (NCI 60 cell lines; mean graph): 0.0
Range Log10TGI (NCI 60 cell lines; mean graph): 0.0
_MID Log10GI50 (NCI 60 cell lines; mean graph midpoint): -4.02 Molar
_MID Log10LC50 (NCI 60 cell lines; mean graph midpoint): -4.0 Molar
_MID Log10TGI (NCI 60 cell lines; mean graph midpoint): -4.0 Molar
Log10GI50 (NCI-H23): > -4.00 Molar
Log10LC50 (NCI-H23): > -4.00 Molar
Log10TGI (NCI-H23): > -4.00 Molar
Log10GI50 (NCI-H460): > -4.00 Molar
Log10LC50 (NCI-H460): > -4.00 Molar
Log10TGI (NCI-H460): > -4.00 Molar
Log10GI50 (NCI/ADR-RES): > -4.00 Molar
Log10LC50 (NCI/ADR-RES): > -4.00 Molar
Log10TGI (NCI/ADR-RES): > -4.00 Molar
Log10GI50 (OVCAR-8): > -4.00 Molar
Log10LC50 (OVCAR-8): > -4.00 Molar
Log10TGI (OVCAR-8): > -4.00 Molar
Log10GI50 (PC-3): > -4.00 Molar
Log10LC50 (PC-3): > -4.00 Molar
Log10TGI (PC-3): > -4.00 Molar
Log10GI50 (SK-MEL-28): > -4.00 Molar
Log10LC50 (SK-MEL-28): > -4.00 Molar
Log10TGI (SK-MEL-28): > -4.00 Molar
Log10GI50 (SK-MEL-5): > -4.00 Molar
Log10LC50 (SK-MEL-5): > -4.00 Molar
Log10TGI (SK-MEL-5): > -4.00 Molar
Log10GI50 (SN12C): > -4.00 Molar
Log10LC50 (SN12C): > -4.00 Molar
Log10TGI (SN12C): > -4.00 Molar
Log10GI50 (SNB-19): > -4.00 Molar
Log10LC50 (SNB-19): > -4.00 Molar
Log10TGI (SNB-19): > -4.00 Molar
Log10GI50 (SR): > -4.00 Molar
Log10LC50 (SR): > -4.00 Molar
Log10TGI (SR): > -4.00 Molar
Log10GI50 (T-47D): > -4.00 Molar
Log10LC50 (T-47D): > -4.00 Molar
Log10TGI (T-47D): > -4.00 Molar
Log10GI50 (TK-10): > -4.00 Molar
Log10LC50 (TK-10): > -4.00 Molar
Log10TGI (TK-10): > -4.00 Molar
